Source: patent US20210189352A1, “ENHANCED REPROGRAMMING OF SOMATIC CELLS” (IMBA - INSTITUT FÜR MOLEKULARE BIOTECHNOLOGIE GMBH, priority 2017, published 2021)

Tested on: murine embryonic stem cell clone AN3-12
Assay: Etoposide treatment of mouse ES cells (LD30 dose)
Type: cell-based
Settings: 8 day treatment, medium supplemented every day
Method: A murine embryonic stem cell clone, derived from a derivative of HMSc2 termed AN3-12, with doxycycline inducible Cas9 (T3G-Cas9-IRES-mcherry PGK-GFP-rtTA) was used for this study. The following ES cell medium (ESCM) was used: 450 ml DMEM (Sigma D1152); 75 ml FCS (Invitrogen); 5.5 ml P/S (Sigma P0781); 5.5 ml NEAA (Sigma M7145); 5.5 ml LGlu (Sigma G7513); 5.5 ml NaPyr (Sigma S8636); 0.55 ml beta-mercapto ethanol (Merck 805740; dilute 10 μl bME in 2.85 ml PBS for a 1000× stock), 7.5 μl LIF (IMBA-MolBioService; 2 mg/ml). Cell culture-grade dishes were from Greiner (Greiner 15 cm 639160) and NUNC (all other formats, e.g. 10 cm dish Nunclon A Surface, cat no. 150350; 6-well Nunclon A Surface, cat no. 140675). Cells were trypsinized and replated every 2nd day and frozen in FCS:ESCM:DMSO=4.5:4.5:1. Cells were tested for mycoplasma every second week. Etoposide treatment: Medium was supplemented every day with 3.3 nM etoposide, an LD30 dose for 8 day treatment (Sigma E2600000), 1000× etoposide stocks dissolved in PBS-10% EtOH were used. For doxycycline treatment, medium was supplemented every day with 1 μg/ml (Sigma). Cells are tested for mycoplasma contamination every second week.

Structure (SMILES): COc1cc([C@@H]2c3cc4c(cc3[C@@H](O[C@@H]3O[C@@H]5CO[C@@H](C)O[C@H]5[C@H](O)[C@H]3O)[C@H]3COC(=O)[C@H]23)OCO4)cc(OC)c1O [etoposide]
- LD30 dose: 3.3 nM
